Test results reported in patent US20250283800A1, “PROBES FOR FLUORESCENCE IMAGING” (The General Hospital Corporation, priority 2022, published 2025).

How the values were obtained:
[1] = tested on: human FFPE tonsil sections; test: Multiplexed tissue imaging and quenching in FFPE tonsil sections
Procedure: FIG. 23. Quenching can be spatially controlled. A. Focused local quenching experiment (top) in tonsil tissue sections using an epifluorescent microscope. Local quenching was performed using a 40× magnification (DAPI, 8 s) and read-out was performed with 10× magnification (647 nm channel). (<90%) of fixed human tonsil stained with CD45-FLASH-off 650. Whole sample quenching (bottom) was achieved by soaking the sample with buffer at pH=8.4 and using an external 405 nm lamp placed at about 1 cm distance for 2 min. Scale bar=[…] (top), […] (bottom).
Human tissue sections. De-identified formaldehyde-fixed paraffin-embedded tissue sections were commercially obtained from Biomax (HuFOT161, Biomax). Tissue sections were de-paraffinized, rehydrated, and antigen-retrieved in pH 9antigen retrieval buffer. Then sections were blocked with Intercept Blocking buffer (LI-COR) for 30 min before antibody staining for FLASH-off FFPE. Tissues were incubated with FLASH-off antibody conjugates for 30 minutes followed by rinses. […]
We prepared four antibody-FLASH-off conjugates that recognize human immune markers including CD45, CD11c, CD11b, and Pan-CK. […] Regions of high immune cell density were localized and the location of the selected immune markers was assessed within the distinctive morphological structures of tonsils tissue. […]

[2] = Fluorescence emission before/after photolysis at pH=8 (spectroscopic studies of photo reactions); type: physicochemical
Procedure: FIG. 16. Spectroscopic studies of photo reactions for different FLASH-off probes. A. Schematic depiction of the photo reactions for FLASH-off 500-650 (1a-d respectively) with the absorbance and emission spectra scans of the photo reactions (5 μM) in (citric acid+Na2HPO4 buffer, pH=8) before (red) and after (dark) irradiation 1 min 365 nm lamp. All spectra were taken in triplicates. B. Pictures of solutions of panel A in white light (top and bottom) and under UV light (middle).
Photolysis experiments. Solutions for compounds 1a-d were made in the corresponding buffers (pH=3-8) at a concentration of 1-100 μM. The samples were irradiated using different UV light sources (i) LED light source (405 nm, 1.14 mW cm^−2, LuxeonStar SZ-05-U3); UV lamp (˜365 nm, 0.32 mW cm^−2; UVL-28 EL Series, UVP) at different power and time settings (1 s-5 min). Fluorescence intensity was measured at the corresponding λmax of emission before irradiation (t=0 min) and after irradiation (t=1, 2, 3, and 5 min). The data were plotted as the integrated fluorescence intensity normalized to the initial intensity (I=1).

spirocyclization with increasing pH [2] | Structure (SMILES) | signal intensity of non-photoquenchable stains after UV light irradiation [1]
 | N=C(N)c1ccc(-c2cc3ccc(C(=N)N)cc3[nH]2)cc1 [DAPI] | without causing an apparent decrease in signal intensity
did not proceed with increasing pH | CNC(=O)c1ccccc1Cc1c2ccc(=N)c(S(=O)(=O)O)c-2oc2c(S(=O)(=O)O)c(N)ccc12 [Compound 7a] | 
